Data reported in patent US12351557B2, “Chemical compound manufacture, new salt form, and therapeutic uses thereof” (Eustralis Pharmaceuticals Limited (Trading As Pressura …, priority 2018, dated 2025).
Where a name gives a salt, the structure may show the parent alone. Read-outs that look alike come from different tables or passages of the source.

Columns and labels:
[1] = Qualitative solubility of free base in 50 solvents; format: physicochemical; details: for Qualitative solubility in solvents: organic solvents, 50 solvents studied
From the text: The solubility of compound of Formula (1) was first qualitatively studied in 50 solvents. In all SAS experiments, the amorphous free base of compound of formula (1) was obtained after evaporation of the experiments.

pKa estimate = format: physicochemical; details: free base
[2] = Hydroscopicity (water sorption at 90% RH); format: physicochemical
[3] = Polymorphism risk assessment; details: 2HCl salt physicochemical summary
Procedure: Decomposition/melting range temperature and presence of solvate molecules are estimated from thermal analyses. The polymorphism risk was assessed base on the number of identified forms during this work and reproducibility of the salt screen target patterns.

[4] = Solubility of 2HCl salt in solvents; format: physicochemical
Procedure: A summary of the physicochemical characteristics of 2HCl salt of Compound of Formula (1) is provided below.
Solubility: very soluble in water ([…]0.2 mg/μL), freely soluble in ethanol (0.1-0.2 mg/μL), sparingly soluble in 1-propanol and acetonitrile (0.01-0.03 mg/μL).

[5] = pH of solution in purified water; format: physicochemical; details: 5 mg/mL solution in purified water
Procedure: pH: 2 to 3 (5 mg/mL solution in purified water).

[6] = Stability study, samples stored at 40° C./75% RH; format: physicochemical

Question: With Cc1ccccc1-c1cc(N2CCN(C)CC2)ncc1C(=O)N(C)Cc1cc(C(F)(F)F)cc(C(F)(F)F)c1 [Compound of Formula (1), N-{[3,5-Bis(trifluoromethyl)phenyl]methyl}-N-methyl-4-(2-methylphenyl)-6-(4-methyl-1-piperazinyl)-3-pyridinecarboxamide] as the compound, how does the “Qualitative solubility in solvents” value [1] read?
Answer: Its value is “very soluble or soluble in many solvents”.

Question: What about the “Qualitative solubility in solvents” value ([1]; listed as free base) of the same compound?
Answer: Its value is “very soluble or soluble in almost all solvents”.

Question: And the “Behaviour of water as solvent” value ([1]; water)?
Answer: The value was “antisolvent”.

Question: What about the pKa (pKa estimate; read-out: pKa 1 (estimate)) of the same compound?
Answer: Its pKa is 7.54.

Question: And the pKa (pKa estimate; read-out: pKa 2 (estimate))?
Answer: Its pKa is 4.05.

Question: With Cc1ccccc1-c1cc(N2CCN(C)CC2)ncc1C(=O)N(C)Cc1cc(C(F)(F)F)cc(C(F)(F)F)c1 [Compound of formula (1) 2HCl salt] as the compound, how does the “Hydroscopicity (Water sorption at 90% RH)” value [2] read?
Answer: The value was 3.2%.

Question: And the Polymorphism [3]?
Answer: The Polymorphism was “Not detectable”.

Question: What about the “Solubility in 1-propanol” value ([4]; 1-propanol, sparingly soluble) of the same compound?
Answer: The value was 10 to 30 mg/mL.

Question: And the Solubility in acetonitrile ([4]; acetonitrile, sparingly soluble)?
Answer: The Solubility in acetonitrile was 10 to 30 mg/mL.

Question: And the Solubility in ethanol ([4]; ethanol, freely soluble)?
Answer: Its Solubility in ethanol is 100 to 200 mg/mL.

Question: What about the pH [5] of the same compound?
Answer: The pH was 2 to 3.

Question: What about the “Appearance (white to yellow powder)” value ([6]; 0 months) of the same compound?
Answer: The value was “Complies”.

Question: What about the “Assay (% "as is")” value ([6]; 0 months) of the same compound?
Answer: Its value is 95.0%.

Question: And the “Assay (% anhydrous)” value ([6]; 0 months)?
Answer: The value was 100.0%.

Question: What about the “Related Substances: Any other unknown” value ([6]; 0 months) of the same compound?
Answer: The value was “RRT 0.89: 0.007%”.

Question: What about the “Related Substances: Intermediate 3” value ([6]; 0 months) of the same compound?
Answer: Its value is “Int 3: 0.69%”.

Question: What about the “Related Substances: RRT - 0.89” value ([6]; 0 months) of the same compound?
Answer: Its value is “RRT 0.85: 0.34%”.

Question: What about the “Related Substances: RRT - 1.27” value ([6]; 0 months) of the same compound?
Answer: Its value is “RRT 1.27: 0.27%”.

Question: And the “Related Substances: Total Impurities” value ([6]; 0 months)?
Answer: Its value is 1.37%.

Question: And the “Water Content” value ([6]; 0 months)?
Answer: Its value is 5.0%.

Question: What about the pH ([6]; 0 months) of the same compound?
Answer: The pH was 2.31.

Question: And the “Appearance (white to yellow powder)” value ([6]; 1 month)?
Answer: Its value is “Complies”.

Question: And the “Assay (% "as is")” value ([6]; 1 month)?
Answer: The value was 94.8%.

Question: And the “Assay (% anhydrous)” value ([6]; 1 month)?
Answer: Its value is 99.8%.

Question: What about the “Related Substances: Any other unknown” value ([6]; 1 month) of the same compound?
Answer: The value was “RRT 0.90: 0.07%”.

Question: And the “Related Substances: Intermediate 3” value ([6]; 1 month)?
Answer: Its value is “Int 3: 0.71%”.

Question: And the “Related Substances: RRT - 0.89” value ([6]; 1 month)?
Answer: Its value is “RRT 0.89: 0.36%”.

Question: What about the “Related Substances: RRT - 1.27” value ([6]; 1 month) of the same compound?
Answer: The value was “RRT 1.28: 0.27%”.

Question: And the “Related Substances: Total Impurities” value ([6]; 1 month)?
Answer: Its value is 1.41%.

Question: What about the “Water Content” value ([6]; 1 month) of the same compound?
Answer: The value was 4.99%.

Question: And the pH ([6]; 1 month)?
Answer: The pH was 2.39.

Question: And the “Appearance (white to yellow powder)” value ([6]; 3 months)?
Answer: Its value is “Complies”.

Question: And the “Assay (% "as is")” value ([6]; 3 months)?
Answer: The value was 94.5%.

Question: What about the “Assay (% anhydrous)” value ([6]; 3 months) of the same compound?
Answer: The value was 100.1%.

Question: And the “Related Substances: Any other unknown” value ([6]; 3 months)?
Answer: Its value is “RRT 0.91: 0.05%”.

Question: What about the “Related Substances: Intermediate 3” value ([6]; 3 months) of the same compound?
Answer: The value was “Int 3: 0.71%”.

Question: And the “Related Substances: RRT - 0.89” value ([6]; 3 months)?
Answer: The value was “RRT 0.90: 0.36%”.

Question: And the “Related Substances: RRT - 1.27” value ([6]; 3 months)?
Answer: Its value is “RRT 1.27: 0.26”.

Question: And the “Related Substances: Total Impurities” value ([6]; 3 months)?
Answer: The value was 1.38%.

Question: What about the “Water Content” value ([6]; 3 months) of the same compound?
Answer: The value was 5.58%.

Question: And the pH ([6]; 3 months)?
Answer: The pH was 2.33.

Question: And the “Appearance (white to yellow powder)” value ([6]; 6 months)?
Answer: The value was “Complies”.

Question: What about the “Assay (% "as is")” value ([6]; 6 months) of the same compound?
Answer: The value was 94.6%.

Question: What about the “Assay (% anhydrous)” value ([6]; 6 months) of the same compound?
Answer: The value was 99.7%.

Question: What about the “Related Substances: Any other unknown” value ([6]; 6 months) of the same compound?
Answer: The value was “RRT 0.91: 0.06%”.

Question: And the “Related Substances: Intermediate 3” value ([6]; 6 months)?
Answer: The value was “Int 3: 0.71%”.

Question: And the “Related Substances: RRT - 0.89” value ([6]; 6 months)?
Answer: Its value is “RRT 0.90: 0.35%”.

Question: What about the “Related Substances: RRT - 1.27” value ([6]; 6 months) of the same compound?
Answer: Its value is “RRT 1.27: 0.27%”.

Question: And the “Related Substances: Total Impurities” value ([6]; 6 months)?
Answer: The value was 1.39%.

Question: What about the “Water Content” value ([6]; 6 months) of the same compound?
Answer: Its value is 5.17%.

Question: What about the pH ([6]; 6 months) of the same compound?
Answer: Its pH is 2.47.

Question: What about the “Appearance (white to yellow powder)” value ([6]; Initial Release) of the same compound?
Answer: Its value is “Complies”.

Question: What about the “Assay (% "as is")” value ([6]; Initial Release) of the same compound?
Answer: The value was 98.3%.

Question: And the “Assay (% anhydrous)” value ([6]; Initial Release)?
Answer: Its value is 99.3%.

Question: What about the “Related Substances: Intermediate 3” value ([6]; Initial Release) of the same compound?
Answer: Its value is “Int 3: 0.71%”.

Question: And the “Related Substances: RRT - 0.89” value ([6]; Initial Release)?
Answer: The value was “RRT 0.87: 0.35%”.

Question: And the “Related Substances: RRT - 1.27” value ([6]; Initial Release)?
Answer: Its value is “RRT 1.27: 0.28%”.

Question: And the “Related Substances: Total Impurities” value ([6]; Initial Release)?
Answer: The value was 1.34%.

Question: What about the “Water Content” value ([6]; Initial Release) of the same compound?
Answer: Its value is 1.0%.

Question: What about the pH ([6]; Initial Release) of the same compound?
Answer: Its pH is 2.31.
